Laboratory results reported in the NIST ThermoML archive (doi:10.1016/j.tca.2013.08.016).

Assays:
[1] = refractive index (Na D-line) (dimensionless); conditions: 101.33 kPa, Liquid, Standard Abbe refractometry
[2] = refractive index (Na D-line) (dimensionless); φn = volume fraction of the nth substance listed; conditions: 101 kPa, Liquid, Standard Abbe refractometry

CCCC[n+]1cccc(C)c1.F[B-](F)(F)F [1-butyl-3-methylpyridinium tetrafluoroborate]
[1]
Conditions | refractive index
293.15 K | 1.45248
303.15 K | 1.44976
313.15 K | 1.44706
323.15 K | 1.44425

CCCC[n+]1cccc(C)c1.F[B-](F)(F)F [1-butyl-3-methylpyridinium tetrafluoroborate] + CCO
[2]
Conditions | refractive index
293.15 K, φ1 = 0.0895 | 1.3713
293.15 K, φ1 = 0.1467 | 1.3773
293.15 K, φ1 = 0.2062 | 1.38325
293.15 K, φ1 = 0.2725 | 1.38979
293.15 K, φ1 = 0.4637 | 1.4075
293.15 K, φ1 = 0.5588 | 1.41595
293.15 K, φ1 = 0.6583 | 1.4245
293.15 K, φ1 = 0.6935 | 1.42757
293.15 K, φ1 = 0.8285 | 1.43878
293.15 K, φ1 = 0.883 | 1.44311
293.15 K, φ1 = 0.928 | 1.4467
293.15 K, φ1 = 0.9641 | 1.44963
293.15 K, φ1 = 1 | 1.45248
303.15 K, φ1 = 0.0891 | 1.3672
303.15 K, φ1 = 0.1461 | 1.37333
303.15 K, φ1 = 0.2054 | 1.3794
303.15 K, φ1 = 0.2716 | 1.38602
303.15 K, φ1 = 0.4626 | 1.404
303.15 K, φ1 = 0.5577 | 1.41257
303.15 K, φ1 = 0.6572 | 1.42134
303.15 K, φ1 = 0.6925 | 1.42444
303.15 K, φ1 = 0.8278 | 1.43584
303.15 K, φ1 = 0.8825 | 1.44031
303.15 K, φ1 = 0.9277 | 1.4439
303.15 K, φ1 = 0.964 | 1.4469
303.15 K, φ1 = 1 | 1.44976
313.15 K, φ1 = 0.0887 | 1.36314
313.15 K, φ1 = 0.1477 | 1.36964
313.15 K, φ1 = 0.2047 | 1.37558
313.15 K, φ1 = 0.2706 | 1.3823
313.15 K, φ1 = 0.4614 | 1.40055
313.15 K, φ1 = 0.5565 | 1.40924
313.15 K, φ1 = 0.6561 | 1.4182
313.15 K, φ1 = 0.6914 | 1.42134
313.15 K, φ1 = 0.8271 | 1.43292
313.15 K, φ1 = 0.882 | 1.43752
313.15 K, φ1 = 0.9273 | 1.44114
313.15 K, φ1 = 0.9638 | 1.44418
313.15 K, φ1 = 1 | 1.44706
323.15 K, φ1 = 0.0883 | 1.35913
323.15 K, φ1 = 0.147 | 1.36572
323.15 K, φ1 = 0.2037 | 1.37173
323.15 K, φ1 = 0.2695 | 1.37856
323.15 K, φ1 = 0.4599 | 1.39714
323.15 K, φ1 = 0.555 | 1.40599
323.15 K, φ1 = 0.6548 | 1.41504
323.15 K, φ1 = 0.6902 | 1.41823
323.15 K, φ1 = 0.8263 | 1.42988
323.15 K, φ1 = 0.8814 | 1.43448
323.15 K, φ1 = 0.9269 | 1.43827
323.15 K, φ1 = 0.9636 | 1.44135
323.15 K, φ1 = 1 | 1.44425

CCCC[n+]1cccc(C)c1.F[B-](F)(F)F [1-butyl-3-methylpyridinium tetrafluoroborate] + CO
[2]
Conditions | refractive index
293.15 K, φ1 = 0.0958 | 1.34245
293.15 K, φ1 = 0.2025 | 1.35728
293.15 K, φ1 = 0.2756 | 1.36702
293.15 K, φ1 = 0.3528 | 1.37693
293.15 K, φ1 = 0.4508 | 1.38917
293.15 K, φ1 = 0.5501 | 1.40126
293.15 K, φ1 = 0.6751 | 1.416
293.15 K, φ1 = 0.7686 | 1.42667
293.15 K, φ1 = 0.828 | 1.43333
293.15 K, φ1 = 0.8763 | 1.43873
293.15 K, φ1 = 0.9159 | 1.44307
293.15 K, φ1 = 0.9334 | 1.445
293.15 K, φ1 = 0.9732 | 1.44949
293.15 K, φ1 = 1 | 1.45248
303.15 K, φ1 = 0.0958 | 1.33885
303.15 K, φ1 = 0.2025 | 1.35407
303.15 K, φ1 = 0.2756 | 1.364
303.15 K, φ1 = 0.3528 | 1.37406
303.15 K, φ1 = 0.4508 | 1.38641
303.15 K, φ1 = 0.5501 | 1.39855
303.15 K, φ1 = 0.6751 | 1.41337
303.15 K, φ1 = 0.7686 | 1.42402
303.15 K, φ1 = 0.828 | 1.43069
303.15 K, φ1 = 0.8763 | 1.43606
303.15 K, φ1 = 0.9159 | 1.44042
303.15 K, φ1 = 0.9334 | 1.44233
303.15 K, φ1 = 0.9732 | 1.4468
303.15 K, φ1 = 1 | 1.44976
313.15 K, φ1 = 0.0948 | 1.33503
313.15 K, φ1 = 0.2006 | 1.3505
313.15 K, φ1 = 0.2756 | 1.36083
313.15 K, φ1 = 0.3501 | 1.37069
313.15 K, φ1 = 0.4478 | 1.38319
313.15 K, φ1 = 0.5471 | 1.39542
313.15 K, φ1 = 0.6725 | 1.41032
313.15 K, φ1 = 0.7665 | 1.4211
313.15 K, φ1 = 0.8262 | 1.42784
313.15 K, φ1 = 0.875 | 1.4333
313.15 K, φ1 = 0.915 | 1.43765
313.15 K, φ1 = 0.9327 | 1.43961
313.15 K, φ1 = 0.9729 | 1.44409
313.15 K, φ1 = 1 | 1.44706
323.15 K, φ1 = 0.0942 | 1.332
323.15 K, φ1 = 0.1995 | 1.34774
323.15 K, φ1 = 0.2718 | 1.35784
323.15 K, φ1 = 0.3485 | 1.3681
323.15 K, φ1 = 0.4461 | 1.38056
323.15 K, φ1 = 0.5454 | 1.39283
323.15 K, φ1 = 0.6709 | 1.40773
323.15 K, φ1 = 0.7652 | 1.41853
323.15 K, φ1 = 0.8253 | 1.42521
323.15 K, φ1 = 0.8742 | 1.43058
323.15 K, φ1 = 0.9144 | 1.43492
323.15 K, φ1 = 0.9322 | 1.43687
323.15 K, φ1 = 0.9727 | 1.44133
323.15 K, φ1 = 1 | 1.44425

CCCC[n+]1ccc(C)cc1.F[B-](F)(F)F [1-butyl-4-methylpyridinium tetrafluoroborate]
[1]
Conditions | refractive index
293.15 K | 1.45386
303.15 K | 1.45114
313.15 K | 1.44841
323.15 K | 1.44571

CCCC[n+]1ccccc1.F[B-](F)(F)F [1-butylpyridinium tetrafluoroborate]
[1]
Conditions | refractive index
293.15 K | 1.44719
303.15 K | 1.44454
313.15 K | 1.4419
323.15 K | 1.43924
